# Reference: US9045390B2, “Haloalkylmethyleneoxyphenyl-substituted ketoenols” (Bayer CropScience AG, priority 2009, dated 2015)
# Read-outs that look alike come from different tables or passages of the source.
# Assays:
# cereals [1] = experiment: Container trials with cereals in a greenhouse, mefenpyr 1 day before herbicide application; type: in vivo
# Protocol: (§1) Seeds of monocotyledonous and dicotyledonous weed and crop plants are placed in sandy loam in wood fibre pots, covered with soil and cultivated in a greenhouse under good growth conditions. Two to three weeks after sowing, the test plants are treated at the one-leaf stage. The test compounds, formulated as wettable powders (WP), are sprayed onto the green parts of the plants in different dosages with a water application rate of 600 l/ha (converted), with 0.2% added wetting agent. After the test plants have been kept in the greenhouse under optimal growth conditions for about three weeks, the effect of the preparations is assessed visually by comparison to untreated controls (herbicidal effect in per cent: 100% effect=the plants have died, 0% effect=like control plants).
# (§2) If there is to be an additional test as to whether safeners can improve the plant compatibility of test substances in the case of crop plants, the following options are used for applying the safeners: • Seeds of the crop plants are, before sowing, dressed with safener substance (the amount of safener stated in per cent, based on the weight of the seed) • Before the application of the test substances, the crop plants are sprayed with the safener at a certain application rate per hectare (usually one day before the application of the test substances) • The safener is applied together with the test substance as a tankmix (the amount of safener is stated in g/ha or as a ratio, based on the herbicide).
# Container Trials with Cereals in a Greenhouse
# Mefenpyr 1 Day Before Herbicide Application
# cereals [2] = experiment: as above; type: in vivo; settings: 10 days after application, 12.5 g a.i./ha
# Maize (Aventura) = experiment: Container tests with maize-soya-cotton in a greenhouse, cyprosulfamide 1 day before herbicide application; type: in vivo
# Protocol: as §1, §2
# (§3) Container Tests with Maize-Soya-Cotton in a Greenhouse
# (§4) Cyprosulfamide 1 Day Before Herbicide Application
# [3] = test system: green peach aphid (Myzus persicae); experiment: Myzus test (MYZUPE spray treatment); type: in vivo; settings: application rate 20 g/ha, Chinese cabbage leaf discs
# Protocol: Myzus Test (MYZUPE Spray Treatment)
# To prepare an appropriate active ingredient preparation, 1 part by weight of active ingredient is mixed with the stated amounts of solvent and emulsifier, and the concentrate is diluted with emulsifier-containing water to the desired concentration.
# Discs of Chinese cabbage (Brassica pekinensis) infected by all stages of the green peach aphid (Myzus persicae) are sprayed with an active ingredient preparation of the desired concentration.
# After the desired time, the effect in % is determined. 100% means that all of the aphids have been killed; 0% means that none of the aphids have been killed.
# [4] = test system: green peach aphid (Myzus persicae); experiment: Enhancement of activity by ammonium/phosphonium salts with penetration enhancers: Myzus persicae test; type: in vivo; settings: 0.8 ppm
# Protocol: Enhancement of Activity by Ammonium/Phosphonium Salts in Combination with Penetration Enhancers Myzus persicae Test [table] To prepare an appropriate active ingredient preparation, 1 part by weight of active ingredient is mixed with the stated amount of solvent and emulsifier, and the concentrate is diluted to the desired concentration with water. […] Bell pepper plants (Capsicum annuum) heavily infested by the green peach aphid (Myzus persicae) are treated by spraying to runoff point with the active ingredient preparation of the desired concentration.
# [5] = test system: cotton aphid (Aphis gossypii); experiment: Aphis gossypii test (with ammonium salts and penetration enhancers); type: in vivo; settings: for Kill rate/% after 6 days: active ingredient alone, cotton plants
# Protocol: Aphis gossypsi Test [table] To prepare an appropriate active ingredient preparation, 1 part by weight of active ingredient is mixed with the stated amounts of solvent and emulsifier, and the concentrate is diluted to the desired concentration with emulsifier-containing water. […] Cotton plants (Gossypium hirsutum) heavily infested by the cotton aphid (Aphis gossypii) are treated by spraying to runoff point with the active ingredient preparation of the desired concentration.
# Maize (Cecilia) = type: in vivo
# Protocol: as §1, §2, §3, §4
# Maize (Arsenal) = experiment: Container tests with maize-soya-cotton in a greenhouse, cyprosulfamide 1 day before herbicide application; type: in vivo
# Protocol: as §1, §2, §3, §4
# [6] = log P determination by HPLC/LC-MS on reversed-phase column (C 18); type: physicochemical; settings: pH 2.7, 0.1% aqueous formic acid and acetonitrile; for chromatographic logP: reversed-phase column (C 18), pH 2.7, LC-MS acidic range, read-out: log P (HCOOH)
# Protocol: The log P values reported in the above tables and preparation examples are determined according to EEC Directive 79/831 Annex V.A8 by HPLC (High Performance Liquid Chromatography) on a reversed-phase column (C 18). Temperature: 43° C.
# The determination is effected in the acidic range at pH 2.3 with 0.1% aqueous phosphoric acid and acetonitrile as eluent; linear gradient from 10% acetonitrile to 95% acetonitrile.
# The determination by LC-MS in the acidic range is effected at pH 2.7 with 0.1% aqueous formic acid and acetonitrile (contains 0.1% formic acid) as the eluent; linear gradient from 10% acetonitrile to 95% acetonitrile.
# The determination by LC-MS in the neutral range is effected at pH 7.8 with 0.001 molar aqueous ammonium hydrogen carbonate solution and acetonitrile as the eluent; linear gradient from 10% acetonitrile to 95% acetonitrile.
# The calibration is effected with unbranched alkane-2-ones (with 3 to 16 carbon atoms), the log P values of which are known (determination of log P values on the basis of the retention times by linear interpolation between two successive alkanones).
# [7] = Summer barley, 28 days after application, 12.5 g a.i./ha
# [8] = Summer barley, 28 days after application, 25 g a.i./ha
# [9] = 28 days after application, 12.5 g a.i./ha
# [10] = 28 days after application, 25 g a.i./ha
# [11] = 28 days after application, 50 g a.i./ha
# [12] = 28 days after application, 100 g a.i./ha
# [13] = Summer barley, 28 days after application, 50 g a.i./ha
structure (smiles),measurement,setting,value
CCOC1CCCC2(CC1)NC(=O)C(c1c(C)cc(OCC(F)(F)F)cc1CC)=C2O (stereo not shown) [Example I-1-a-5],Summer barley observed (%),cereals [1]; [7],65%
same,Summer barley observed (%),cereals [1]; [8],95%
same,Summer wheat observed (%),cereals [1]; [9],65%
CCc1cc(OCC(F)(F)F)cc(C)c1C1=C(O)C2(CCC3(CC2)OCCO3)NC1=O [Example I-1-a-6],Summer wheat observed (%),cereals [1]; [9],70%
same,Summer wheat observed (%),cereals [1]; [10],85%
CCc1cc(OCC(F)(F)F)cc(C)c1C1=C(O)C2(CCC3(CC2)OCC(C)O3)NC1=O (stereo not shown) [Example I-1-a-7],Summer wheat observed (%),cereals [1]; [9],50%
same,Summer wheat observed (%),cereals [1]; [10],50%
same,Summer wheat observed (%),cereals [1]; [11],70%
same,Summer wheat observed (%),cereals [1]; [12],70%
CCc1cc(OCC(F)(F)F)cc(C)c1C1=C(O)C2(CCC(C)CC2)NC1=O (stereo not shown) [Example I-1-a-8],Summer wheat observed (%),cereals [2],65%
same,Summer wheat observed (%),cereals [1]; [9],98%
same,28 days after application Maize (Aventura) observed (%),Maize (Aventura); 12.5 g a.i./ha,35%
same,28 days after application Maize (Aventura) observed (%),Maize (Aventura); 25 g a.i./ha,60%
same,28 days after application Maize (Aventura) observed (%),Maize (Aventura); 50 g a.i./ha,70%
CCCOC1CCCC2(C1)NC(=O)C(c1c(C)cc(OCC(F)(F)F)cc1CC)=C2O (stereo not shown) [Example I-1-a-14],Summer wheat observed (%),cereals [1]; [9],93%
same,Summer wheat observed (%),cereals [1]; [10],99%
same,Summer wheat observed (%),cereals [1]; [11],100%
CCCCOC1CCCC2(C1)NC(=O)C(c1c(C)cc(OCC(F)(F)F)cc1CC)=C2O (stereo not shown) [Example I-1-a-15],Summer barley observed (%),cereals [1]; [7],70%
same,Summer barley observed (%),cereals [1]; [8],85%
same,Summer barley observed (%),cereals [1]; [13],97%
same,Summer wheat observed (%),cereals [1]; [9],10%
same,Summer wheat observed (%),cereals [1]; [10],30%
same,Summer wheat observed (%),cereals [1]; [11],40%
same,Summer wheat observed (%),cereals [1]; [12],60%
COCC1CCC2(CC1)NC(=O)C(c1c(C)cc(OCC(F)(F)F)cc1C)=C2O (stereo not shown) [Example I-1-a-17],Summer barley observed (%),cereals [1]; [13],40%
same,Summer barley observed (%),"cereals [1]; Summer barley, 28 days after application, 100 g a.i./ha",80%
same,Summer barley observed (%),"cereals [1]; Summer barley, 28 days after application, 200 g a.i./ha",95%
CCCOC1CCCC2(C1)NC(=O)C(c1c(C)cc(OCC(F)(F)F)cc1C)=C2O (stereo not shown) [Example I-1-a-19],Summer barley observed (%),cereals [1]; [8],70%
same,Summer wheat observed (%),cereals [1]; [9],10%
same,Summer wheat observed (%),cereals [1]; [10],20%
same,Summer wheat observed (%),cereals [1]; [11],70%
same,Summer wheat observed (%),cereals [1]; [12],85%
Cc1cc(OCC(F)(F)F)cc(C)c1C1=C(O)C2CCCCN2C1=O (stereo not shown) [Example I-1-a-20],effect in % (aphids killed),[3],≥ 80%
COC1CCC2(CC1)NC(=O)C(c1c(C)cc(OCC(F)(F)F)cc1C)=C2O (stereo not shown) [Example I-1-a-25],Summer wheat observed (%),cereals [2],40%
same,Summer wheat observed (%),cereals [1]; [9],70%
same,Kill rate/% after 6 days +AS (1000 ppm),[4]; +AS (1000 ppm),0%
same,Kill rate/% after 6 days +RME (1000 ppm),[4]; +RME (1000 ppm),40%
same,Kill rate/% after 6 days +RME +AS (1000 ppm each),[4]; +RME +AS (1000 ppm each),55%
same,Kill rate/% after 6 days,"[4]; active ingredient alone, bell pepper plants",0%
same,Kill rate/% after 6 days +AS (1000 ppm),[5]; 0.8 ppm,35%
same,Kill rate/% after 6 days +RME (1000 ppm),[5]; 0.8 ppm,20%
same,Kill rate/% after 6 days +RME +AS (1000 ppm each),[5]; 0.8 ppm,85%
same,Kill rate/% after 6 days,[5]; 0.8 ppm,0%
same,28 days after application Maize (Cecilia) observed (%),Maize (Cecilia); 12.5 g a.i./ha,0%
same,28 days after application Maize (Cecilia) observed (%),Maize (Cecilia); 25 g a.i./ha,10%
same,28 days after application Maize (Cecilia) observed (%),Maize (Cecilia); 50 g a.i./ha,20%
same,28 days after application Maize (Cecilia) observed (%),Maize (Cecilia); 100 g a.i./ha,35%
same,28 days after application Maize (Arsenal) observed (%),Maize (Arsenal); 12.5 g a.i./ha,5%
same,28 days after application Maize (Arsenal) observed (%),Maize (Arsenal); 25 g a.i./ha,15%
same,28 days after application Maize (Arsenal) observed (%),Maize (Arsenal); 50 g a.i./ha,75%
same,28 days after application Maize (Arsenal) observed (%),Maize (Arsenal); 100 g a.i./ha,100%
COC1CCC2(CC1)NC(=O)C(c1c(C)ccc(OCC(F)(F)F)c1C)=C2O (stereo not shown) [Example I-1-a-29],Kill rate/% after 6 days +AS (1000 ppm),[5]; 4 ppm,15%
same,Kill rate/% after 6 days +RME (1000 ppm),[5]; 4 ppm,80%
same,Kill rate/% after 6 days +RME +AS (1000 ppm each),[5]; 4 ppm,95%
same,Kill rate/% after 6 days,[5]; 4 ppm,10%
Cc1ccc(OCC(F)(F)F)c(C)c1C1=C(O)C2(CCOCC2)NC1=O [Example I-1-a-31],Kill rate/% after 6 days +AS (1000 ppm),[5]; 4 ppm,10%
same,Kill rate/% after 6 days +RME (1000 ppm),[5]; 4 ppm,5%
same,Kill rate/% after 6 days +RME +AS (1000 ppm each),[5]; 4 ppm,35%
same,Kill rate/% after 6 days,[5]; 4 ppm,0%
CCc1cc(OCC(F)(F)F)cc(C)c1C1=C(O)C2(CCC(C)(OC)CC2)NC1=O (stereo not shown) [Example I-1-a-37],Summer wheat observed (%),cereals [1]; [9],70%
CO[C@H]1CC[C@]2(CC1)NC(=O)C(c1c(C)cc(OCC(F)(F)F)cc1C)=C2OC(=O)C(C)C [Example I-1-b-2],Summer barley observed (%),cereals [1]; in vivo,50%
CCOC(=O)OC1=C(c2c(C)cc(OCC(F)(F)F)cc2C)C(=O)NC12CCCC(OCC)C2 (stereo not shown) [Example I-1-c-2],28 days after application Maize (Cecilia) observed (%),Maize (Cecilia); 100 g a.i./ha,75%
same,28 days after application Maize (Arsenal) observed (%),Maize (Arsenal); 25 g a.i./ha,20%
same,28 days after application Maize (Arsenal) observed (%),Maize (Arsenal); 50 g a.i./ha,20%
same,28 days after application Maize (Arsenal) observed (%),Maize (Arsenal); 100 g a.i./ha,25%
Cc1ccc(OCC(F)(F)F)cc1C1=C(O)C2(CCCC2)OC1=O [Example I-2-a-1],log P (HCOOH),[6]; LC-MS acidic range,2.45
same,chromatographic logP,[6],2.59
Cc1ccc(OCC(F)(F)F)cc1C1=C(OC(=O)C(C)(C)C)C2(CCCC2)OC1=O [Example I-2-b-1],chromatographic logP,[6],4.69
CCOC(=O)C1(OC(=O)Cc2c(C)cc(OCC(F)(F)F)cc2C)CCOCC1 [III-1],chromatographic logP,[6],3.78
"Cc1cc(OCC(F)(F)F)cc(C)c1CC(=O)O [XXXI-1, 2,6-Dimethyl-4-trifluoroethoxyphenylacetic acid]",chromatographic logP,[6],2.51
